Test results published in PMC6222357, “Liquid Chromatography-Tandem Mass Spectrometry Simultaneous Determination and Pharmacokinetic Study of Fourteen Alkaloid Components in Dog Plasma after Oral Administration of Corydalis bungeana Turcz Extract” (Molecules : A Journal of Synthetic Chemistry and Natural …, 2018).
Read-outs that look alike come from different tables or passages of the source.

Key:
[1] = Stability of the analytes in beagle plasma QC samples under different storage conditions; format: physicochemical, beagle dog; settings: n = 6; for Stability (% RE) Long-Term: 2 weeks at −80 °C; for Stability (% RE) Short-Term: 4 h at ambient temperature; for Stability (% RE) Freeze-Thaw: three freeze (−80 °C)-thaw cycles; for Stability (% RE) Post-Preparative: 12 h after sample preparation at 4 °C
Method: As illustrated in Table 4. The stability of QC samples at three evaluated concentrations contained low, medium and high under different stored conditions was assessed on the basis of peak areas in comparison with freshly prepared QC sample.
(§1) The stability of the fourteen analytes in beagle dogs investigated by analyzing QC samples of each analyte at three QC levels (LQC, MQC and HQC) and each level contained six replicates. The short-term stability was assessed during storage for 4 h at ambient temperature. The long-term stability was determined after the QC samples had been stored for 2 weeks at −80 °C. The freeze-thaw stability was determined after three freeze at −80 °C and thaw cycles. and post-preparative stability was during storage for 12 h after sample preparation at 4 °C. The room temperature stability for stock solution was determined after storing the sample at 25 °C for 24 h. A series of concentrations of stability testing QC samples was gained by the calibration curve which was established from freshly prepared standard samples.

in vivo = settings: male, beagle, dog, po, 0.12 g/kg
Method: (§2) The developed UHPLC-MS/MS method was employed to determine the pharmacokinetics of the fourteen components in C. bungeana after a single oral administration of 0.12 g/kg (equivalent to 1180.8 µg/kg A, 100.8 µg/kg B, 172.8 µg/kg C, 194.4 µg/kg D, 147.6 µg/kg E, 291.6 µg/kg F, 7.2 µg/kg G, 64.8 µg/kg H, 10.8 µg/kg I, 435.6 µg/kg J, 7.2 µg/kg K, 2851.2 µg/kg L, 694.8 µg/kg M, 928.8µg/kg N) to six beagle dogs. […] According to the Meeh-Rubn method, we established a final oral dosage of 0.12 g/kg in dogs. The plasma concentrations of the fourteen components at each time point were detected and the data gained from six beagle dogs were averaged.
(§3) Before the experiment, the beagle dogs were fasted for 12 h but given water during the research period. Blood (300 µL) was collected from the forelimb vein plexus at a few specific time points (0.083, 0.25, 0.5, 0.75 and 1, 2, 3, 4, 6, 8, 12, 24 h) after the oral administration of the extract of C. bungeana (0.12 g/kg). After centrifugation at 13,000 rpm for 10 min, the plasma was collected immediately and maintained at −80 °C until sample analysis.
(§4) Using a liquid-liquid extraction method, 100 µL of methanol and 50 µL of IS (bifendate) were added to a beagle dog plasma sample (100 µL) followed by vortex for 30 s. Then 3 mL of aether was accurately added and the mixture was vortexed for 60 s. After this step, the samples were put into a centrifuge (XiangYi Technologies, Changsha, Hunan, China). The organic supernatant was pipetted into clean glass tubes individually after centrifugation 3800 rpm for 6 min. The upper organic layer was removed and evaporated to dryness at 40 °C under a stream of nitrogen. The residue was then redissolved with 100 µL of mobile phase (28% acetonitrile), vortexed for 30 s and filtered by a 0.22 µm membrane. A 10 µL aliquot of the solution was injected into the UHPLC-MS/MS system for analysis.
(§5) Concentrations of fourteen alkaloids in beagle dog blood were calculated employing the Excel program (Microsoft Corp., Redmond, WA, USA). Pharmacokinetic parameters were calculated using non-compartmental methods. The elimination rate constant (Ke) was calculated employing the linear regression of the terminal points in a semi-log plot of the plasma concentration against time. The elimination half-life (t1/2) was calculated using the formula. t1/2 = 0.693/Ke(1)
(§6) The area under the blood concentration versus time curve up to the last quantifiable time point (AUC0→t) was calculated by the linear trapezoidal rule. The area under the plasma concentration –time curve to time infinity (AUC0→∞) was calculated as follows: AUC0→∞ = AUC0→t + Ct/Ke(2)
(§7) The maximum observed blood concentration (Cmax) and the time to reach maximum observed blood concentration (Tmax) were obtained directly from the concentration-time curve.

[2] = design: method as in PMID 26805956; settings: rat plasma, single oral administration of C. bungeana extract; cited from earlier work
[3] = Pharmacokinetic study in beagle dogs after oral administration of C. bungeana extract (UHPLC-MS/MS of plasma); settings: male, beagle, dog, plasma, po, 0.12 g/kg
Method: as §2, §3, §4, §5, §6, §7

[4] = Room temperature stability of stock solution; format: physicochemical; settings: 25 °C for 24 h, n = 6
Method: as §1

AUC(0-inf) [3] [ng·h/mL] | AUC(0-t) [3] [ng·h/mL] | Stability (% RE) Post-Preparative ([1]; high QC) [% RE] | Stability (% RE) Post-Preparative ([1]; low QC) [% RE] | Stability (% RE) Post-Preparative ([1]; medium QC) [% RE] | SMILES | Stability (% RE) Long-Term ([1]; high QC in beagle plasma) [% RE] | Stability (% RE) Short-Term ([1]; high QC in beagle plasma) [% RE] | Stability (% RE) Freeze-Thaw ([1]; high QC in beagle plasma) [% RE] | Stability (% RE) Long-Term ([1]; low QC in beagle plasma) [% RE] | Stability (% RE) Short-Term ([1]; low QC in beagle plasma) [% RE] | Stability (% RE) Freeze-Thaw ([1]; low QC in beagle plasma) [% RE] | Stability (% RE) Long-Term ([1]; medium QC in beagle plasma) [% RE] | Stability (% RE) Short-Term ([1]; medium QC in beagle plasma) [% RE] | Stability (% RE) Freeze-Thaw ([1]; medium QC in beagle plasma) [% RE] | AUC(0-inf) (in vivo) [ng·h/mL] | AUC(0-t) (in vivo) [ng·h/mL] | Cmax (in vivo) [ng/mL] | Tmax (in vivo) [h] | half-life (in vivo) [h] | Tmax [2] [h] | further results
 |  |  |  |  | c1c2c(cc3c1OCO3)-c1cc3ccc4c(c3c[n+]1CC2)OCO4 [Coptisine, coptisine] | 13.69 | 7.57 | 12.83 | 5.48 | 10.66 | 10.21 | 6.73 | −3.05 | 8.93 | 6030 ± 194 | 5960 ± 205 | 2260 ± 256 | 0.92 ± 0.13 | 2.48 ± 0.33 |  | 
1080 ± 136 | 1030 ± 106 | 10.57 | 1.65 | 11.35 | CN1CCc2cc3c(cc2C(=O)Cc2ccc4c(c2C1)OCO4)OCO3 [Protopine, protopine] | 13.11 | 12.18 | 10.26 | −5.39 | 5.52 | 3.72 | 7.93 | 8.75 | 4.17 |  |  |  |  |  | 1.96 | Cmax [3]: 434 ± 73.9 ng/mL; Tmax [3]: 0.88 ± 0.13 h; half-life [3]: 4.92 ± 1.49 h
747 ± 95.2 | 682 ± 74.8 | −6.09 | 12.10 | 11.32 | COc1ccc(CCNC(=O)/C=C/c2ccc(O)c(O)c2)cc1 [Z23, 7′-(3′,4′-dihydroxyphenyl)-N-[(4-methoxyphenyl)-ethyl]propena-mide] | 9.00 | 10.85 | 12.43 | −8.16 | 10.52 | 5.35 | 9.86 | 9.94 | 12.92 |  |  |  |  |  | 3.71 | Stability (% RE) Room Temperature for Stock-Solution ([4]; high QC level): 2.30 % RE; Stability (% RE) Room Temperature for Stock-Solution ([4]; low QC level): 3.65 % RE; Stability (% RE) Room Temperature for Stock-Solution ([4]; medium QC level): 1.64 % RE; Cmax [3]: 237 ± 13.7 ng/mL; Tmax [3]: 0.96 ± 0.1 h; half-life [3]: 6.34 ± 1.21 h

SMILES | AUC(0-inf) [3] [ng·h/mL] | AUC(0-t) [3] [ng·h/mL] | Stability (% RE) Post-Preparative ([1]; high QC) [% RE] | Stability (% RE) Post-Preparative ([1]; low QC) [% RE] | Stability (% RE) Post-Preparative ([1]; medium QC) [% RE] | Stability (% RE) Long-Term ([1]; high QC in beagle plasma) [% RE] | Stability (% RE) Short-Term ([1]; high QC in beagle plasma) [% RE] | Stability (% RE) Freeze-Thaw ([1]; high QC in beagle plasma) [% RE] | Stability (% RE) Long-Term ([1]; low QC in beagle plasma) [% RE] | Stability (% RE) Short-Term ([1]; low QC in beagle plasma) [% RE] | Stability (% RE) Freeze-Thaw ([1]; low QC in beagle plasma) [% RE] | Stability (% RE) Long-Term ([1]; medium QC in beagle plasma) [% RE] | Stability (% RE) Short-Term ([1]; medium QC in beagle plasma) [% RE] | Stability (% RE) Freeze-Thaw ([1]; medium QC in beagle plasma) [% RE] | AUC(0-inf) (in vivo) [ng·h/mL] | AUC(0-t) (in vivo) [ng·h/mL] | Cmax (in vivo) [ng/mL] | Tmax (in vivo) [h] | half-life (in vivo) [h] | Tmax [2] [h] | further results
C[n+]1cc2c3c(ccc2c2ccc4cc5c(cc4c21)OCO5)OCO3 [Sanguinarine, sanguinarine] |  |  | 10.40 | 7.77 | −2.41 | 11.08 | 9.29 | 12.22 | 13.35 | 12.41 | 11.45 | 7.46 | −5.50 | 8.78 | 1350 ± 109 | 1260 ± 107 | 533 ± 29.1 | 0.96 ± 0.1 | 5.63 ± 1.36 |  | Stability (% RE) Room Temperature for Stock-Solution ([4]; high QC level): −4.02 % RE; Stability (% RE) Room Temperature for Stock-Solution ([4]; low QC level): 2.48 % RE; Stability (% RE) Room Temperature for Stock-Solution ([4]; medium QC level): 3.20 % RE
